pIC50: −log10 of the molar value.
Experiments:
p110β/p85α (PI3Kβ) = biological target: T1, p110β/p85α (PI3Kβ) (Homo sapiens, UniProt P42338); assay: HTRF assay, p110β/p85α; assay type: biochemical; conditions: read-out: PI3Kβ HTRF IC50 Inhibition Designation
T1 construct: purchased Millipore 14-603
Description: The mechanics of the assay platform are best described by the vendor (Millipore, Billerica, Mass.) on their website at the following URL: http://www.millipore.com/coa/tech1/74jt4z.
Briefly, Stop solution (Stop A, #33-007 and Stop B, #33-009; 3:1 ratio) and Detection Mix (DMC, #33-015 with DMA, #33-011 and DMB, #33-013; 18:1:1 ratio) were prepared as recommended by the manufacturer ˜2 hrs prior to use. […] Lipid kinase reactions were started with the addition of 5 μL of ATP solution, mixed for 15 sec on a rotary plate shaker and incubated for 15-30 minutes at 25° C. Next, reactions were stopped with a 5 μL addition of Stop solution followed by a 5 μL volume of Detection Mix. […] At the conclusion of each assay, the HTRF ratio from fluorescence emission values for each well was calculated and % Inhibition determined from averaged controls wells. % Inhibition values for each compound re then plotted against inhibitor concentration to estimate IC50 from log [Inhibitor] vs Response, Variable Slope model in GraphPad Prism from GraphPad Software (San Diego, Calif.).

p120γ (PI3Kγ) = biological target: T2, p120γ (PI3Kγ) (Homo sapiens, UniProt P48736); assay: HTRF assay, p120γ; assay type: biochemical; conditions: PI3Kγ; read-out: PI3Kγ HTRF IC50 Inhibition Designation
T2 construct: purchased BPS Bioscience 40625
T2 sequence (P48736 whole entry): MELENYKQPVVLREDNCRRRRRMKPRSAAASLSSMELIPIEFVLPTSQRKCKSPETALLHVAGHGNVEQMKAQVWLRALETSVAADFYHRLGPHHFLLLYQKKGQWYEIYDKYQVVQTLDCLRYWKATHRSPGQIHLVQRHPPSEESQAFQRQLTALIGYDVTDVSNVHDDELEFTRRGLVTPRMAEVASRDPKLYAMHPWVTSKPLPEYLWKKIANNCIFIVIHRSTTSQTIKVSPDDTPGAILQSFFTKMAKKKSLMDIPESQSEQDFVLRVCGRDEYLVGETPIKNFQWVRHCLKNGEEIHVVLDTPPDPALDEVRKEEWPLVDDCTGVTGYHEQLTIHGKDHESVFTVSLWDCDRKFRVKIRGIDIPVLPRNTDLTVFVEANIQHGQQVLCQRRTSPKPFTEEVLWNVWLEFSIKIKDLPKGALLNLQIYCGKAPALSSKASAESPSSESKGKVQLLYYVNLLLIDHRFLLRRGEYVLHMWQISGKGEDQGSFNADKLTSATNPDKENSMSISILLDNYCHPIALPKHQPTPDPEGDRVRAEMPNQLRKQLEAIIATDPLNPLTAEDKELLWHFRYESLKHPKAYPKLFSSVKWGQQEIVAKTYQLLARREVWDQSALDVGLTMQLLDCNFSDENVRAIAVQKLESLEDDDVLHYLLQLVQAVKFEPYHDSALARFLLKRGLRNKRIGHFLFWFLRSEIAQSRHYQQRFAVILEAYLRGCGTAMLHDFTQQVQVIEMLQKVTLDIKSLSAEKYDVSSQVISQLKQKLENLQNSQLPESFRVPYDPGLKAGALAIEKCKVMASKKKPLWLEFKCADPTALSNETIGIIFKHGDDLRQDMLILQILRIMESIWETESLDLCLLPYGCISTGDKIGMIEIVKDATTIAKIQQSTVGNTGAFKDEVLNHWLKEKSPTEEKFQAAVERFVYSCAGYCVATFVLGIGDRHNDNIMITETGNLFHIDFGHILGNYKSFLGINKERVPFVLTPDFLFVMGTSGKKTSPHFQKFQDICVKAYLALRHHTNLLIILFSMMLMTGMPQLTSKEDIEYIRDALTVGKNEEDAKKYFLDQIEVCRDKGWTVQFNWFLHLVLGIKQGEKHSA
Source text: The protocol below describes an end-point, competition-binding HTRF assay used to measure inherent potency of test compounds against active p110α/p85α, p110β/p85α, p120γ enzymes. The mechanics of the assay platform are best described by the vendor (Millipore, Billerica, Mass.) on their website at the following URL: http://www.millipore.com/coa/tech1/74jt4z.
Briefly, Stop solution (Stop A, #33-007 and Stop B, #33-009; 3:1 ratio) and Detection Mix (DMC, #33-015 with DMA, #33-011 and DMB, #33-013; 18:1:1 ratio) were prepared as recommended by the manufacturer ˜2 hrs prior to use. Additionally, 1× reaction buffer (4× buffer stock #33-003), a 1.4× stock of enzyme from BPS Bioscience (San Diego, Ca) or Millipore (Billerica, Mass.) with di-C8-PIP2 lipid substrate (#33-005), and a 4×ATP solution (#A7699) Sigma/Aldrich (St. Louis, Mo.) were prepared in 1×reaction buffer. 15 μL of enzyme and lipid substrate mix were pre-incubated in a Corning (#3573) 384-well, black, non-treated microtiter plate (Corning, N.Y.) for 30 min at 25° C. with a 0.5 μL volume of 50% DMSO and serially diluted compounds prepared in 50%-75% DMSO. Lipid kinase reactions were started with the addition of 5 μL of ATP solution, mixed for 15 sec on a rotary plate shaker and incubated for 15-30 minutes at 25° C. Next, reactions were stopped with a 5 μL addition of Stop solution followed by a 5 μL volume of Detection Mix. Stopped reactions were equilibrated for 1 and 18 hrs at room temperature and then read in a Synergy4 plate reader from BioTek (Winooski, Vt.) at λex330-80/λem620-35 and λem665-7.5. At the conclusion of each assay, the HTRF ratio from fluorescence emission values for each well was calculated and % Inhibition determined from averaged controls wells. % Inhibition values for each compound re then plotted against inhibitor concentration to estimate IC50 from log [Inhibitor] vs Response, Variable Slope model in GraphPad Prism from GraphPad Software (San Diego, Calif.).
Reagents Used in Optimized Protocol: • [p120γ]=1-4 nM, [ATP]=50 μM, [di-C8-PIP2]=10 μM • (40625; BPS Bioscience)

T1 sequence (P42338 whole entry): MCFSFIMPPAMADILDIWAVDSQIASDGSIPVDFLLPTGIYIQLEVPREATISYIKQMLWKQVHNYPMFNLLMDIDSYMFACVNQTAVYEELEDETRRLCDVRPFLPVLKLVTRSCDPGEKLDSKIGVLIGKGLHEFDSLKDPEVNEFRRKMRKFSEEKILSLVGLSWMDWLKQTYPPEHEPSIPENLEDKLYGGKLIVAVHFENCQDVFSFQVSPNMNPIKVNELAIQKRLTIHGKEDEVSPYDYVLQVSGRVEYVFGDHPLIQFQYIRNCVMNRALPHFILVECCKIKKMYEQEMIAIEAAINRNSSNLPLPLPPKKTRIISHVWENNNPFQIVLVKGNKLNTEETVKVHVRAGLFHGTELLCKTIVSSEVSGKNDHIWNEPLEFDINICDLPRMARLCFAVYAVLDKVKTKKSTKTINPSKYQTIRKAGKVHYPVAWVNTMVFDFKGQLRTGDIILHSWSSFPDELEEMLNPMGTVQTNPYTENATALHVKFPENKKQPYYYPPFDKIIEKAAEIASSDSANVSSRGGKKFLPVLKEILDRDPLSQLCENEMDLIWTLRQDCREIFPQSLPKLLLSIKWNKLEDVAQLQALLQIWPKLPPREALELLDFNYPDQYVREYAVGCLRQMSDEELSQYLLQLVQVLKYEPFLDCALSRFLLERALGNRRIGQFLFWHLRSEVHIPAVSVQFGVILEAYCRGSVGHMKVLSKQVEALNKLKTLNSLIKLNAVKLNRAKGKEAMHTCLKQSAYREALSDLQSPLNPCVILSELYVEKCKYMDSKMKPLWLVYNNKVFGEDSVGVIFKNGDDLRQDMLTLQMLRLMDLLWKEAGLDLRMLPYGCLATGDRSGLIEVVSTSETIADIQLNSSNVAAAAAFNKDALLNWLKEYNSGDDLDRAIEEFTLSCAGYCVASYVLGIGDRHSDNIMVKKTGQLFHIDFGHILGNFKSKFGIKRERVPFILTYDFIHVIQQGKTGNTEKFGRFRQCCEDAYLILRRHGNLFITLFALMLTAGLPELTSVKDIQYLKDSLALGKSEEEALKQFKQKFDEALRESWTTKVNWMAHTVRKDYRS
T1 sequence (P27986 whole entry partner): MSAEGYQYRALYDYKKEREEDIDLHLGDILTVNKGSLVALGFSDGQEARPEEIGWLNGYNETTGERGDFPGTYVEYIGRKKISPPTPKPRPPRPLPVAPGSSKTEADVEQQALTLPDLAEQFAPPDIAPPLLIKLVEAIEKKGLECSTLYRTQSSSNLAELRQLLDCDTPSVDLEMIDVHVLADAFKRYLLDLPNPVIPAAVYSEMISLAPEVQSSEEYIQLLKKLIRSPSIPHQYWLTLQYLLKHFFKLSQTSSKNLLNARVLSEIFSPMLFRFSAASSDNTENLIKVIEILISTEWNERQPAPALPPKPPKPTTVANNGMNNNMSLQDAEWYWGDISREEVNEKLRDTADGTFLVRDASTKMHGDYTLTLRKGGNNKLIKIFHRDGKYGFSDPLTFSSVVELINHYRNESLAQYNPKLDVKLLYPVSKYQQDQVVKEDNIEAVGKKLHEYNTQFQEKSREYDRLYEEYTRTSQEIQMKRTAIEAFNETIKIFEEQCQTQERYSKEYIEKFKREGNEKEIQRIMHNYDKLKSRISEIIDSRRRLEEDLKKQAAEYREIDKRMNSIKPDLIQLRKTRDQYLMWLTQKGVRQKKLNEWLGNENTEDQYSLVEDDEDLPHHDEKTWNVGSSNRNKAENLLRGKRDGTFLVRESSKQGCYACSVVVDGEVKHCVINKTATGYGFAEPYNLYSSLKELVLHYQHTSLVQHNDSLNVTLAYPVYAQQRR

| SMILES | pIC50 (p110β/p85α (PI3Kβ)) | pIC50 (p120γ (PI3Kγ)) |
| --- | --- | --- |
| COc1ccc(NC(=O)[C@H]2CCC(=O)O2)cc1-n1c(CSc2ncnc3[nH]cnc23)nc2cccc(Cl)c2c1=O [XXXVII-2, (R)-N-(3-(2-((9H-purin-6-ylthio)methyl)-5-chloro-4-oxoquinazolin-3(4H)-yl)-4-methoxyphenyl)-5-oxotetrahydrofuran-2-carboxamide] | 6.00 to 7.00 | – |
| COc1ccc(NC(=O)N2C[C@@H]3C[C@H]2C(=O)O3)cc1-n1c(CSc2ncnc3[nH]cnc23)nc2cccc(Cl)c2c1=O [XXXVII-4, (1S,4S)-N-(3-(2-((9H-purin-6-ylthio)methyl)-5-chloro-4-oxoquinazolin-3(4H)-yl)-4-methoxyphenyl)-3-oxo-2-oxa-5-azabicyclo[2.2.1]heptane-5-carboxamide] | 6.00 to 7.00 | – |
| COc1ccc(C(=O)N2C[C@@H]3C[C@H]2C(=O)O3)cc1-n1c(CSc2ncnc3[nH]cnc23)nc2cccc(Cl)c2c1=O [XXXVII-1, (1S,4S)-5-(3-(2-((9H-purin-6-ylthio)methyl)-5-chloro-4-oxoquinazolin-3(4H)-yl)-4-methoxybenzoyl)-2-oxa-5-azabicyclo[2.2.1]heptan-3-one] | 6.00 to 7.00 | – |
| COc1c(OCCCC(=O)N2C[C@H]3C[C@@H]2C(=O)O3)ccc2c1N=C(NC(=O)c1cccnc1)N1CCN=C21 [XXVII-13, N-(7-methoxy-8-(4-oxo-4-((1R,4R)-3-oxo-2-oxa-5-azabicyclo[2.2.1]heptan-5-yl)butoxy)-2,3-dihydroimidazo[1,2-c]quinazolin-5-yl)nicotinamide] | 6.00 to 7.00 | – |
| COc1ccc(NC(=O)[C@@H]2CCC(=O)O2)cc1-n1c(CSc2ncnc3[nH]cnc23)nc2cccc(Cl)c2c1=O [XXXVII-3, (S)-N-(3-(2-((9H-purin-6-ylthio)methyl)-5-chloro-4-oxoquinazolin-3(4H)-yl)-4-methoxyphenyl)-5-oxotetrahydrofuran-2-carboxamide] | 6.00 to 7.00 | – |
| COc1c(OCCCC(=O)N2C[C@@H]3C[C@H]2C(=O)O3)ccc2c1N=C(NC(=O)c1cccnc1)N1CCN=C21 [XXVII-14, N-(7-methoxy-8-(4-oxo-4-((1S,4S)-3-oxo-2-oxa-5-azabicyclo[2.2.1]heptan-5-yl)butoxy)-2,3-dihydroimidazo[1,2-c]quinazolin-5-yl)nicotinamide] | 6.00 to 7.00 | – |

Next, values leading:

| pIC50 (p110β/p85α (PI3Kβ)) | pIC50 (p120γ (PI3Kγ)) | SMILES |
| --- | --- | --- |
| 6.00 to 7.00 | 6.00 to 7.00 | Nc1ncc(-c2nc(N3CCOCC3)c3sc(CN4CCN(C(=O)C5CSC(=O)C5)CC4)cc3n2)cn1 (stereo not drawn) [XXII-31, 4-(4-((2-(2-aminopyrimidin-5-yl)-4-morpholinothieno[3,2-d]pyrimidin-6-yl)methyl)piperazine-1-carbonyl)dihydrothiophen-2(3H)-one] |
| 6.00 to 7.00 | 6.00 to 7.00 | O=C1CC[C@H](C(=O)N2CCN(Cc3cc4nc(-c5cccc6[nH]ncc56)nc(N5CCOCC5)c4s3)CC2)O1 [XXII-22] |
| > 8.00 | – | C=CC(=O)Nc1ccc(-c2ccnc3ccc(-c4cnc(OC)c(NS(=O)(=O)c5ccc(F)cc5F)c4)cc23)cc1 [XXV-14, N-(4-(6-(5-(2,4-difluorophenylsulfonamido)-6-methoxypyridin-3-yl)quinolin-4-yl)phenyl) acrylamide] |
| > 8.00 | – | COc1ncc(-c2ccc3nccc(-c4ccc(C(=O)N5C[C@H]6C[C@@H]5C(=O)O6)cc4)c3c2)cc1NS(=O)(=O)c1ccc(F)cc1F [XXV-15, 2,4-difluoro-N-(2-methoxy-5-(4-(4-((1R,4R)-3-oxo-2-oxa-5-azabicyclo[2.2.1]heptane-5-carbonyl)phenyl)quinolin-6-yl)pyridin-3-yl)benzenesulfonamide] |
| 6.00 to 7.00 | 6.00 to 7.00 | CC(C)Oc1c(NCC(=O)N2CCN(Cc3cc4nc(-c5cnc(N)nc5)nc(N5CCOCC5)c4s3)CC2)c(=O)c1=O [XXII-27, 3-(2-(4-((2-(2-aminopyrimidin-5-yl)-4-morpholinothieno[3,2-d]pyrimidin-6-yl)methyl)piperazin-1-yl)-2-oxoethylamino)-4-isopropoxycyclobut-3-ene-1,2-dione] |
| 6.00 to 7.00 | 6.00 to 7.00 | COC(=O)N1C(=O)CC[C@H]1C(=O)N1CCN(Cc2cc3nc(-c4cnc(N)nc4)nc(N4CCOCC4)c3s2)CC1 [XXII-29, (S)-methyl 2-(4-((2-(2-aminopyrimidin-5-yl)-4-morpholinothieno[3,2-d]pyrimidin-6-yl)methyl)piperazine-1-carbonyl)-5-oxopyrrolidine-1-carboxylate] |
| 6.00 to 7.00 | – | CN(Cc1cc2nc(-c3cccc(O)c3)nc(N3CCOCC3)c2s1)C(=O)CCC(=O)N1CCC1=O [XXII-24, N-((2-(3-hydroxyphenyl)-4-morpholinothieno[3,2-d]pyrimidin-6-yl)methyl)-N-methyl-4-oxo-4-(2-oxoazetidin-1-yl)butanamide] |
| 5.00 to 6.00 | 6.00 to 7.00 | O=C1CC[C@@H](C(=O)N2CCN(Cc3cc4nc(-c5cccc6[nH]ncc56)nc(N5CCOCC5)c4s3)CC2)O1 [XXII-23] |
| 6.00 to 7.00 | 7.00 to 8.00 | C/C=C/S(=O)(=O)N1CCN(Cc2cc3nc(-c4cnc(N)nc4)nc(N4CCOCC4)c3s2)CC1 [XXII-25, (E)-5-(4-morpholino-6-((4-(prop-1-enylsulfonyl)piperazin-1-yl)methyl)thieno[3,2-d]pyrimidin-2-yl)pyrimidin-2-amine] |
| 6.00 to 7.00 | 7.00 to 8.00 | Nc1ncc(-c2nc(N3CCOCC3)c3sc(CN4CCN(C(=O)C5CCSC5=O)CC4)cc3n2)cn1 (stereo not drawn) [XXII-30, 3-(4-((2-(2-aminopyrimidin-5-yl)-4-morpholinothieno[3,2-d]pyrimidin-6-yl)methyl)piperazine-1-carbonyl)dihydrothiophen-2(3H)-one] |
| 6.00 to 7.00 | 6.00 to 7.00 | COC(=O)N1C(=O)CC[C@@H]1C(=O)N1CCN(Cc2cc3nc(-c4cnc(N)nc4)nc(N4CCOCC4)c3s2)CC1 [XXII-28] |
| 6.00 to 7.00 | 6.00 to 7.00 | CC(C)Oc1c(N2CCN(Cc3cc4nc(-c5cnc(N)nc5)nc(N5CCOCC5)c4s3)CC2)c(=O)c1=O [XXII-26, 3-(4-((2-(2-aminopyrimidin-5-yl)-4-morpholinothieno[3,2-d]pyrimidin-6-yl)methyl)piperazin-1-yl)-4-isopropoxycyclobut-3-ene-1,2-dione] |
| > 8.00 | – | COc1ncc(-c2ccc3nccc(-c4ccc(C(=O)N5C[C@@H]6C[C@H]5C(=O)O6)cc4)c3c2)cc1NS(=O)(=O)c1ccc(F)cc1F [XXV-13, 2,4-difluoro-N-(2-methoxy-5-(4-(4-((1S,4S)-3-oxo-2-oxa-5-azabicyclo[2.2.1]heptane-5-carbonyl)phenyl)quinolin-6-yl)pyridin-3-yl)benzenesulfonamide] |
| 6.00 to 7.00 | 6.00 to 7.00 | Nc1ncc(-c2nc(N3CCOCC3)c3sc(CN4CCN(C(=O)C5CCC(=O)S5)CC4)cc3n2)cn1 (stereo not drawn) [XXII-32, 5-(4-((2-(2-aminopyrimidin-5-yl)-4-morpholinothieno[3,2-d]pyrimidin-6-yl)methyl)piperazine-1-carbonyl)dihydrothiophen-2(3H)-one] |
